Experimental data taken from patent US9403894B2, “Glucagon analogues” (Zealand Pharma A/S, priority 2010, dated 2016).
Residues, ends and D or L forms follow the SMILES beside them.

How the values were obtained:
[1] = system: high fat fed C57BL/6J mice; assay: Body weight gain in high fat fed C57BL/6J mice, 10 days s.c. treatment; assay type: in vivo; settings: both doses 0.5 and 5 nmol/kg s.c. twice daily
Protocol: C57BL/6J mice were acclimatized in their new environment for 4 weeks with free access to a high fat diet and water. […] Throughout the study, body weights were recorded daily and used to administer the body weight-corrected doses of peptide (FIG. 6). Mice were sacrificed by cervical dislocation.

[2] = system: high fat diet fed mice; assay: 3 weeks s.c. treatment, lipids in 30 weeks high fat diet fed mice; assay type: in vivo; settings: 30 weeks high fat diet mice, 10 nmol/kg s.c. twice daily
Protocol: The assay is an enzymatic colorimetric method. In the presence of magnesium ions, dextran sulfate selectively forms water-soluble complexes with LDL, VLDLA and chylomicrons, which are resistant to PEG-modified enzymes. The HDL cholesterol is determined enzymatically by cholesterol esterase and cholesterol oxidase coupled with PEG to the amino groups. Cholesterol esters are broken down quantitatively to free cholesterol and fatty acids. HDL cholesterol is enzymatically oxidized to choles-4-en-3-one and H2O2, and the formed H2O2 is measured colorimetrically (Cobas®; Application note HDLC3).
The direct determination of LDL takes advantage of the selective micellary solubilization of LDL by a nonionic detergent and the interaction of a sugar compound and lipoproteins (VLDL and chylomicrons). The combination of a sugar compound with detergent enables the selective determination of LDL in plasma. The test principle is the same as that of cholesterol and HDL, but due to the sugar and detergent only LDL-cholesterol esters are broken down to free cholesterol and fatty acids. Free cholesterol is then oxidized and the formed H2O2 is measured colorimetrically (Application note LDL_C, Cobas®).
The effect was measured on LDL, HDL and triglycerides (CHO: Total Cholesterol; HDL: High Density Cholesterol; LDL: Low Density Cholesterol; TRIG: Triglycerides; HDULDL: Ratio between HDL and LDL).

[3] = target: Glucagon receptor (Homo sapiens, UniProt P47871); settings: at 12.5 μM and 125 nM
Protocol: Unless specified otherwise, the sample compounds were diluted in 100% anhydrous DMSO including all dilutions. If the sample compound is provided in a different solvent all master stock dilutions are performed in the specified solvent. All control wells contained identical solvent final concentrations as the sample compound wells.
Reference agonists were handled as mentioned above serving as assay control. The reference agonists were handled as described above for Emax.

[4] = system: diet induced obese C57BL/6J mice; assay: 3 weeks s.c. treatment in diet induced obese C57BL/6J mice: body weight and OGTT; assay type: in vivo; settings: s.c. twice daily
Protocol: C57Bl/6J male mice, 6 weeks old, were acclimatized in their new environment with free access to a high fat diet and water. 36 weeks old, the animals were randomized into groups with similar average fasting (6 hours) blood glucose (assessed from blood samples taken from the tip of the tail). The mice were treated twice daily s.c. for three weeks with compound 6 or vehicle. Body weight was recorded daily. After peptide treatment an oral glucose tolerance test (OGTT) were performed after subjecting the animals to a 6 hour fast. Animals were dosed with peptide or vehicle in the morning. Approximately four hours later an initial blood sample (fasting blood glucose level) was taken. Thereafter an oral dose of glucose was given and the animals were returned to their home cages (t=0). BG was measured at t=15 min, t=30 min, t=60 min, t=90 min and t=120 min. All animals were sacrificed immediately following blood sampling by CO2 anesthesia followed by cervical dislocation.

[5] = target: GLP-1 receptor (Homo sapiens, UniProt P43220); assay: Class B GPCR counterscreen, calcium flux agonist format; assay type: cell-based; settings: at 12.5 μM and 125 nM
Text: (§1) The protocol design is as follows:

[6] = in vivo; settings: male, cynomolgus monkey
Protocol: Plasma samples were withdrawn at the following time points; predose, 5, 10, 30 min, 1, 2, 4, 8, 12, 24 and 36 h post i.v. dosing and predose, 10, 30 min, 1, 2, 4, 8, 12, 24, 36 and 48 h post s.c. dosing. The vehicle consisted of 25 mM phosphate buffered saline at pH 7.4 (25 mM sodium phosphate, 25 mM NaCl). Plasma samples were analyzed using protein precipitation followed by solid phase extraction and LC-MS/MS analysis. Pharmacokinetic parameters were calculated using non-compartmental analysis in WinNonLin version 4.1.

[7] = target: Secretin receptor (Homo sapiens, UniProt P47872); assay: Class B GPCR counterscreen, calcium flux antagonist format; assay type: cell-based; settings: at 10 μM
Protocol: as §1
(§2) Using the EC80 values determined previously, stimulated all pre-incubated sample compound and reference antagonist (if applicable) wells with EC80 of reference agonist.
(§3) Read for 180 seconds using the FLIPR^TETRA (this addition added reference agonist to respective wells)—then fluorescence measurements were collected to calculate IC50-values.

[8] = target: T1, GIP receptor (Homo sapiens, UniProt P48546); assay: as above; assay type: cell-based; settings: at 10 μM and 100 nM
T1 sequence (P48546 22-466): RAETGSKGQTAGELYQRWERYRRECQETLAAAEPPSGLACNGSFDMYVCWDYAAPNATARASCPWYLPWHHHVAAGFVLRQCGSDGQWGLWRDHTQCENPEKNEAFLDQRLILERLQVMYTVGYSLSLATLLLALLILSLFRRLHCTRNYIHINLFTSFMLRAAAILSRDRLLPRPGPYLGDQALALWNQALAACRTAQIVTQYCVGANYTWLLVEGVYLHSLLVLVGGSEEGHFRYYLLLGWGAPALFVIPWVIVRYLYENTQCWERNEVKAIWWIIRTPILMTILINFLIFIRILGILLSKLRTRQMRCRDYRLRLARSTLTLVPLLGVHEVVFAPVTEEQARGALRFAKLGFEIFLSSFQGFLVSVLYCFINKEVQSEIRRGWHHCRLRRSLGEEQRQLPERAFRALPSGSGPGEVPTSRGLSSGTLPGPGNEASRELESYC
Protocol: as §1, §2, §3

[9] = target: T2, CRF2 receptor (Homo sapiens, UniProt Q13324); assay: as above; assay type: cell-based; settings: at 10 μM
T2 sequence (Q13324 1-411): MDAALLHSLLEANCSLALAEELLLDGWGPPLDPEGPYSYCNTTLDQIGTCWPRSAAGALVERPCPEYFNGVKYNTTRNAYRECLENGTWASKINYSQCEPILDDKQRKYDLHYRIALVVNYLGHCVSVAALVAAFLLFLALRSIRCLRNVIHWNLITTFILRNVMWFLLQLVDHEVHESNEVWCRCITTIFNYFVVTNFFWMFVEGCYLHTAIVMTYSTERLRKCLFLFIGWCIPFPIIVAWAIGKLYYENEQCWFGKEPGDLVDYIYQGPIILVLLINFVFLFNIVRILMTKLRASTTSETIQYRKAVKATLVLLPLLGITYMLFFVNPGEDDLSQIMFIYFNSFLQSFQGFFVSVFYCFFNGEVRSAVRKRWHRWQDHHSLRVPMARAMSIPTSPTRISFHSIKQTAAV
Protocol: as §1, §2, §3

[10] = system: db/db mice; assay: 6 weeks s.c. administration in db/db mice: HbA1c and body weight; assay type: in vivo; settings: versus vehicle
Protocol: The HbA1c determination is based on Turbidimetric INhibition ImmunoAssay (TINIA) in which HbA1c in the sample reacts with anti-HbA1c to form soluble antigen-antibody complexes. Additions of polyhaptens react with excess anti-HbA1c antibodies to form an insoluble antibody-polyhapten complex, which can be measured turbidimetrically. Liberated hemoglobin in the hemolyzed sample is converted to a derivative having a characteristic absorption spectrum, which is measured bichromatically during the preincubation phases. The final result is expressed as percent HbA1c of total hemoglobin (Cobas®Application note A1C-2).
db/db (BKS.Cg-m+/+ Lepr^db/J) male mice, 5-6 weeks old, were obtained from Charles River Laboratories, Germany, and acclimatized in their new environment with free access to normal chow and water. […] Throughout the study, body weights were recorded daily and used to administer the body weight-corrected doses of peptide. HbA1c levels were measured on blood samples before treatment, and then once weekly during the study. […]
Blood samples were analyzed for HbA1c using the Cobas c111 analyzer (Roche Diagnostics, Mannheim, Germany). Samples for HbA1c analysis were analyzed within 24 hours of sampling.
Throughout the study, body weights were recorded daily and used to administer the body weight-corrected doses of peptide. […]

[11] = diet induced obese C57BL/6J mice

Glucagon receptor, sequence (P47871 26-477): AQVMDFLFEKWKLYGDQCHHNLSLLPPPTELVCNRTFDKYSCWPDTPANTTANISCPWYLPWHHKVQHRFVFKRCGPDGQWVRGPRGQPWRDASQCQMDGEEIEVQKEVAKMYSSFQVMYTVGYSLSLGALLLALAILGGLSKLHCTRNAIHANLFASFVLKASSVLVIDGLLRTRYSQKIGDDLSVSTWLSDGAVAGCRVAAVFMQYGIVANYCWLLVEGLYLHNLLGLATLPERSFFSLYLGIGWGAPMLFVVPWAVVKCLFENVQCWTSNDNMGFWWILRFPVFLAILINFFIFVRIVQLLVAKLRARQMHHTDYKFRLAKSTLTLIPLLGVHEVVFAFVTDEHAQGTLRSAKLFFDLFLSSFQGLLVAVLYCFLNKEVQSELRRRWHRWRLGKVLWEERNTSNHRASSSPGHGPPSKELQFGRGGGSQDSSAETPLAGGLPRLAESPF
Secretin receptor, sequence (P47872 23-440, species assumed): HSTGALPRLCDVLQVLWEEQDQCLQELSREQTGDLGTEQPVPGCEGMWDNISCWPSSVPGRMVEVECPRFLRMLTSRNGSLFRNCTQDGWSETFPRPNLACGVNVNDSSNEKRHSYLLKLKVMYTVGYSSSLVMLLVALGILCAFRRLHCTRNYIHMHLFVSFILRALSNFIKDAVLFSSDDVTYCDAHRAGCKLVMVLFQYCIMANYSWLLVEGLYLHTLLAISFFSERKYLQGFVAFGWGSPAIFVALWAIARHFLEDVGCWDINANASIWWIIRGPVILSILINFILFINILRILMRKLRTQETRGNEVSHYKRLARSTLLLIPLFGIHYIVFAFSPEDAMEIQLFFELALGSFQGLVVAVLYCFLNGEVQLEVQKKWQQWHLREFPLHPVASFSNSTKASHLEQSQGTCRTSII
GLP-1 receptor, sequence (P43220 24-463): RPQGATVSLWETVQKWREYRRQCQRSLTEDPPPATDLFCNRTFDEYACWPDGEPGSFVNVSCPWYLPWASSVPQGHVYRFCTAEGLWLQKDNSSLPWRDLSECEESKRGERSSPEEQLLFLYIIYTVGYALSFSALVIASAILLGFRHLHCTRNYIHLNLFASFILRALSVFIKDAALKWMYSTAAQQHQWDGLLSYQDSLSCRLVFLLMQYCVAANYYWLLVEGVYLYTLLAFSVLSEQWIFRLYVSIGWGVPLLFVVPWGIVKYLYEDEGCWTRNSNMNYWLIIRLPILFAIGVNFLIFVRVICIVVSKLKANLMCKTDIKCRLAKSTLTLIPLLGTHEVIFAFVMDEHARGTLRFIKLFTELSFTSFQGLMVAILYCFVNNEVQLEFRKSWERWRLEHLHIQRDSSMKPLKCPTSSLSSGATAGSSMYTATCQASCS

Structure (SMILES)	effect on body weight gain [1]	effect on HDL ([2]; P<0.001)	effect on LDL ([2]; P<0.001)	effect on total cholesterol ([2]; P<0.001)	effect on triglycerides ([2]; P<0.05)	effect on ratio HDULDL ([2]; p<0.001)	agonist activity, Glucagon receptor [3]	decrease of body weight ([4]; diet induced obese C57BL/6J mice (30 weeks high fat diet), p<0.05)	body weight level reached compared with non-treated controls on regular chow diet [4, 11]	effect on fasting blood glucose [4, 11]	effect on glucose tolerance (decrease in AUC during OGTT) ([4]; diet induced obese C57BL/6J mice, 6 hour fast)	agonist activity, GLP-1 receptor [5]	bioavailability [6]	Tmax ([6]; sc, 20 nmol/kg)	antagonist activity, Secretin receptor [7]	antagonist activity, GIP receptor [8]	antagonist activity, CRF2 receptor [9]	effect on body weight gain ([10]; db/db mice, 5 nmol/kg s.c. twice daily, p<0.0001)	effect on increase in HbA1c over time ([10]; db/db mice, 1, 2.5 and 5 nmol/kg s.c. twice daily)
CCCCCCCCCCCCCCCC(=O)N[C@@H](CCC(=O)NCCCC[C@H](NC(=O)[C@H](CCC(=O)O)NC(=O)[C@H](CC(=O)O)NC(=O)[C@H](CC(C)C)NC(=O)[C@H](Cc1ccc(O)cc1)NC(=O)[C@H](CCCCN)NC(=O)[C@H](CO)NC(=O)[C@H](Cc1ccc(O)cc1)NC(=O)[C@H](CC(=O)O)NC(=O)[C@H](CO)NC(=O)[C@@H](NC(=O)[C@H](Cc1ccccc1)NC(=O)[C@@H](NC(=O)CNC(=O)[C@H](CCC(N)=O)NC(=O)[C@H](CO)NC(=O)[C@@H](N)Cc1c[nH]cn1)[C@@H](C)O)[C@@H](C)O)C(=O)N[C@@H](CCCNC(=N)N)C(=O)N[C@@H](C)C(=O)N[C@@H](CCCCN)C(=O)N[C@@H](CC(=O)O)C(=O)N[C@@H](Cc1ccccc1)C(=O)N[C@H](C(=O)N[C@@H](CCC(=O)O)C(=O)N[C@@H](Cc1c[nH]c2ccccc12)C(=O)N[C@@H](CC(C)C)C(=O)N[C@@H](CC(C)C)C(=O)N[C@@H](CO)C(=O)N[C@@H](C)C(N)=O)[C@@H](C)CC)C(=O)O [Compound 6]	significantly decreased body weight gain	significantly decreased	significantly decreased	significantly decreased	significantly decreased	increased significantly	exhibited agonist activities	38.7%	stabilized to the same body weight as obtained by non-treated control animals on a regular chow diet	significantly decreased fasting blood glucose	no significant effect on glucose tolerance	exhibited agonist activities	43%	4 to 8 h	exhibited antagonist activity	exhibited antagonist activity	exhibited antagonist activity	significantly decreased body weight gain compared to vehicle	did not at any time-point reduce the increase in HbA1c
CCCCCCCCCCCCCCCC(=O)N[C@@H](CCC(=O)NCCCC[C@H](NC(=O)[C@H](CCC(=O)O)NC(=O)[C@H](CC(=O)O)NC(=O)[C@H](CC(C)C)NC(=O)[C@H](Cc1ccc(O)cc1)NC(=O)[C@H](CCCCN)NC(=O)[C@H](CO)NC(=O)[C@H](Cc1ccc(O)cc1)NC(=O)[C@H](CC(=O)O)NC(=O)[C@H](CO)NC(=O)[C@@H](NC(=O)[C@H](Cc1ccccc1)NC(=O)[C@@H](NC(=O)CNC(=O)[C@H](CCC(N)=O)NC(=O)C(C)(C)NC(=O)[C@@H](N)Cc1c[nH]cn1)[C@@H](C)O)[C@@H](C)O)C(=O)N[C@@H](CCCNC(=N)N)C(=O)N[C@@H](C)C(=O)N[C@@H](CCCCN)C(=O)N[C@@H](CC(=O)O)C(=O)N[C@@H](Cc1ccccc1)C(=O)N[C@H](C(=O)N[C@@H](CCC(=O)O)C(=O)N[C@@H](Cc1c[nH]c2ccccc12)C(=O)N[C@@H](CC(C)C)C(=O)N[C@@H](CC(C)C)C(=O)N[C@@H](CO)C(=O)N[C@@H](C)C(N)=O)[C@@H](C)CC)C(=O)O [Compound 7] (HELM PEPTIDE1{H.[Aib].Q.G.T.F.T.S.D.Y.S.K.Y.L.D.E.K.R.A.K.D.F.I.E.W.L.L.S.A.[am]}|PEPTIDE2{[CCCCCCCCCCCCCCCC(=O)[*:2]].[gGlu]}$PEPTIDE1,PEPTIDE2,17:R3-2:R2$$$V2.0)	significantly decreased body weight gain	–	–	–	–	–	–	–	–	–	–	–	–	–	–	–	–	–	–
